Measurements: patent publication US9220740B2

How the values were obtained:
[1] = target: T1, ERβ (Homo sapiens, UniProt Q92731); settings: in the presence of ERβ
[2] = target: T1, ERβ; test: Repression of TNF-α activation of TNF-RE tkLuc in U2OS cells with ERβ; assay type: cell-based; set-up: expressed in transfected cells
[3] = test system: TNF-RE tkLuc; test: Effect of antiestrogens on TNF-RE tkLuc (Example 2); assay type: cell-based, human; settings: for effect on the repression induced by E2: TNF-RE tkLuc; for activation of TNF-RE tkLuc: antiestrogens
[4] = target: T1, ERβ; test: ERE-tk-Luc luciferase activation in U2OS cells cotransfected with human ERβ; assay type: cell-based; set-up: expressed in transfected cells; host or cells: U2OS (human osteosarcoma); settings: competition with the Astragalus extract
[5] = test system: breast cancer; settings: cited from earlier work

T1 sequence (Q92731 whole entry): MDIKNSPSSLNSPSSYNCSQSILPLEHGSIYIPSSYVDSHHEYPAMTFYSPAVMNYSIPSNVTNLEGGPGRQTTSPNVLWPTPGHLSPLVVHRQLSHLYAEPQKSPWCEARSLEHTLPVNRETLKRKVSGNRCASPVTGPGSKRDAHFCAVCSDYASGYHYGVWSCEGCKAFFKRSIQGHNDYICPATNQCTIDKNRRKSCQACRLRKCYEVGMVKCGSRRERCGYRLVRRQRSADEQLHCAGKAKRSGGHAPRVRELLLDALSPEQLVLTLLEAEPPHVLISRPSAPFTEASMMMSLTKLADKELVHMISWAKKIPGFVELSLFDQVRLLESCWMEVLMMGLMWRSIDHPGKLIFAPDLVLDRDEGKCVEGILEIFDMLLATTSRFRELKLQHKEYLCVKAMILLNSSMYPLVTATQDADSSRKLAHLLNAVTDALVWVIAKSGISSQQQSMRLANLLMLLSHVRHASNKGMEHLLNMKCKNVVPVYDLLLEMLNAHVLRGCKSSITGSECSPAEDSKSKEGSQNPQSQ

Row | repression of TNF-α activation of TNF-RE tkLuc [1] | repression of TNF-α activation of TNF-RE [2] [%] | effect on the extract's stimulatory effect on the ERE with ERβ (FIG. 6) [4] | Structure (SMILES) | effect on the repression induced by E2 [3] | activation of TNF-RE tkLuc [3] [fold] | reduction of the risk of primary invasive breast cancer ([5]; BCPT, women at high risk for breast cancer) [%] | reduction of the risk of recurrences ([5]; five years of therapy, women with estrogen receptor-positive breast cancer) [%] | reduction of mortality from breast cancer ([5]; five years of therapy) [%]
1 | 60-80% | 100 |  | C[C@]12CC[C@@H]3c4ccc(O)cc4CC[C@H]3[C@@H]1CC[C@@H]2O [E2, estradiol] |  |  |  |  | 
2 |  |  |  | C[C@]12CC[C@@H]3c4ccc(O)cc4C[C@@H](CCCCCCCCC[S+]([O-])CCCC(F)(F)C(F)(F)F)[C@H]3[C@@H]1CC[C@@H]2O (stereo partly drawn) [ICI 182, 780] | abolished | 2 |  |  | 
3 |  |  | inhibited | O=C(c1ccc(OCCN2CCCCC2)cc1)c1c(-c2ccc(O)cc2)sc2cc(O)ccc12 [raloxifene] | abolished | 2 |  |  | 
4 |  |  |  | CC/C(=C(\c1ccccc1)c1ccc(OCCN(C)C)cc1)c1ccccc1 [tamoxifen] | abolished | 2 | 49 | 42 | 22
